Measured values as given in article PMC8016363, “Discovery of a Remarkable Methyl Shift Effect in the Vanilloid Activity of Triterpene Amides” (Journal of Natural Products, 2020).

Experiments:
[1] = biological target: T1, recombinant human TRPV1 (hTRPV1) (Homo sapiens, UniProt Q8NER1); test: TRPV1 channel assay: intracellular Ca2+ elevation (Fluo-4) in HEK-293 cells overexpressing hTRPV1; assay type: cell-based; design: expressed in transfected cells; host or cells: HEK-293 cells, stably transfected, selected with Geneticin
T1 sequence (Q8NER1 whole entry): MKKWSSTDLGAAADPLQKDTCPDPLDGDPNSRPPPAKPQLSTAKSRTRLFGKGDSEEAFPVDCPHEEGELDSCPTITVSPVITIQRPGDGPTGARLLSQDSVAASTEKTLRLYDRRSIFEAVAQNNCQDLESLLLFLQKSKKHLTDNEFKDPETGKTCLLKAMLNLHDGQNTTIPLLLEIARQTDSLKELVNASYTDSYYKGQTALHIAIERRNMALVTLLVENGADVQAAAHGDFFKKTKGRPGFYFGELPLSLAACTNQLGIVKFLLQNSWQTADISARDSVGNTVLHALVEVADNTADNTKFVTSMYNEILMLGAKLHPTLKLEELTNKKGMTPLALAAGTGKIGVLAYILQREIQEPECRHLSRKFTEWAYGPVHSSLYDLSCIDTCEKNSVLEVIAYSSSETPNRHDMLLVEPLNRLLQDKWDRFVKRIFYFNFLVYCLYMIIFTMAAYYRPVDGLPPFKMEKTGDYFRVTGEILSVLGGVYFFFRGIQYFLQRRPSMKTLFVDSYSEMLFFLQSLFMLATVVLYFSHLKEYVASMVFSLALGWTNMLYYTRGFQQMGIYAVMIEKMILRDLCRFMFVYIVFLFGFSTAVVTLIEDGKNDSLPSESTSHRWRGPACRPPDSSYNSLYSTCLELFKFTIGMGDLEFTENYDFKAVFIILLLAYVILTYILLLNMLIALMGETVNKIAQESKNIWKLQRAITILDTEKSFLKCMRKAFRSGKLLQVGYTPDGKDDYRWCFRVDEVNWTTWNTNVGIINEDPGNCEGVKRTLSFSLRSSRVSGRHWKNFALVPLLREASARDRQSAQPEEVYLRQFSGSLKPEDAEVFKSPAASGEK

[2] = biological target: T1, recombinant human TRPV1 (hTRPV1); design: expressed in transfected cells; method as in PMID 23932918, PMID 30496739; conditions: previously reported; cited from earlier work

| Structure (SMILES) | inhibition at 25 µM ([1]; HEK293, read-out: inhibition of the capsaicin response) | behaviour at TRPV1 (in words) [2] | efficacy (relative to ionomycin 4 μM) ([1]; HEK-293 cells stably transfected with hTRPV1, [Ca2+]i increase normalized to the response to ionomycin 4 μM) | EC50 ([1]; HEK-293 cells stably transfected with hTRPV1, half-maximal increase in [Ca2+]i, read-out: potency EC50) | IC50 ([1]; read-out: IC50 (capsaicin 0.1 μM), HEK-293-hTRPV1, compound added 5 min before capsaicin 100 nM, capsaicin alone = 100%) |
| --- | --- | --- | --- | --- | --- |
| CC1(C)CC[C@]2(C(=O)O)CC[C@]3(C)C(=CC[C@@H]4[C@@]5(C)CC[C@H](O)C(C)(C)[C@@H]5CC[C@]43C)[C@@H]2C1 [2a, oleanolic acid] | 20 ± 3% | weak antagonists |  |  |  |
| C[C@H]1[C@H](C)CC[C@]2(C(=O)O)CC[C@]3(C)C(=CC[C@@H]4[C@@]5(C)CC[C@H](O)C(C)(C)[C@@H]5CC[C@]43C)[C@H]12 [3a, ursolic acid] |  | weak antagonists |  |  |  |
| COc1cc(CNC(=O)[C@]23CC[C@@H](C)[C@H](C)[C@H]2C2=CC[C@@H]4[C@@]5(C)CC[C@H](O)C(C)(C)[C@@H]5CC[C@@]4(C)[C@]2(C)CC3)ccc1O [3b, Ursoloyl vanillamide] |  |  | 16 ± 1 | 5.4 ± 2.3 µM | 7.5 ± 0.7 µM |
